In paper PMC10681007, “Targeted Degradation of XIAP is Sufficient and Specific to Induce Apoptosis in MYCN-overexpressing High-risk Neuroblastoma” (Cancer Research Communications, 2023):
Counter-ions that a name gives are not always drawn. Each block holds one molecule with its values, some of them ahead of it.

Key:
Assay type in all cases: cell-based, Human
THLE3 and HS5 = experiment: Toxicity and tolerability in noncancerous normal tissue-derived cell lines; conditions: THLE3 and HS5 versus neuroblastoma cells
Experimental: (§1) Cell viability was measured in real time using RealTime-Glo MT Cell Viability Assay as according to manufacturer's instructions from Promega. Cells were seeded at 1 × 10^4 cells per well and treated with a range of doses of indicated antagonists, followed by continuous bioluminescence reading every 24 hours for 3 days using luminescent plate reader, Varioskan (SkanIT software). IC50 was determined using GraphPad Prism software.
To evaluate this, noncancerous normal tissue-derived cell lines THLE3 and HS5 were utilized to evaluate toxicity and tolerability. […] On the basis of their overall potency and specificity toward neuroblastoma cells over noncancerous normal cells, A4, B3, and BV6 were selected as the more efficacious antagonists to be studied further in subsequent experiments (Fig. 2A).

THLE3 (liver origin) = experiment: RealTime-Glo MT cell viability assay, noncancerous normal cells; conditions: Homo sapiens
Experimental: as §1
(§2) To determine their efficacy in neuroblastoma, a panel of neuroblastoma cell lines including neuroblastoma patient-derived cell lines and noncancerous normal tissue-derived cell lines were treated with increasing doses of each antagonist (0–100 µmol/L), followed by real-time measurement of cell viability every 24 for 72 hours.
(§3) To evaluate this, noncancerous normal tissue-derived cell lines THLE3 and HS5 were utilized to evaluate toxicity and tolerability.

HS5 (bone marrow origin) = experiment: as above; conditions: Homo sapiens
Experimental: as §1, §2, §3

NLF = experiment: RealTime-Glo MT cell viability assay; conditions: Homo sapiens
Experimental: as §1, §2

SK-N-SH = experiment: RealTime-Glo MT cell viability assay; conditions: Homo sapiens
Experimental: as §1, §2

[1] = system: NBL01-1116 patient-derived neuroblastoma cells; experiment: RealTime-Glo MT cell viability assay; conditions: Homo sapiens, Neuroblastoma cell
Experimental: as §1, §2

KELLY [2] = experiment: RealTime-Glo MT cell viability assay; conditions: Homo sapiens
Experimental: as §1, §2

IMR-32 = experiment: RealTime-Glo MT cell viability assay; conditions: Homo sapiens
Experimental: as §1, §2

[3] = system: NBL-07-0317 patient-derived neuroblastoma cells; experiment: RealTime-Glo MT cell viability assay; conditions: Homo sapiens, Neuroblastoma cell
Experimental: as §1, §2

BE(2)-C [4] = experiment: RealTime-Glo MT cell viability assay; conditions: Homo sapiens
Experimental: as §1, §2

SK-N-AS [5] = experiment: RealTime-Glo MT cell viability assay; conditions: Homo sapiens
Experimental: as §1, §2

NB1 = experiment: RealTime-Glo MT cell viability assay; conditions: Homo sapiens
Experimental: as §1, §2

[6] = system: NBL16-0118 patient-derived neuroblastoma cells; experiment: RealTime-Glo MT cell viability assay; conditions: Homo sapiens, Neuroblastoma cell
Experimental: as §1, §2

[7] = system: NBL27-0218A patient-derived neuroblastoma cells; experiment: RealTime-Glo MT cell viability assay; conditions: Homo sapiens, Neuroblastoma cell
Experimental: as §1, §2

CHP212 = experiment: RealTime-Glo MT cell viability assay; conditions: Homo sapiens, CHP-212
Experimental: as §1, §2

[8] = system: neuroblastoma cells across the panel of cell lines; experiment: Cell viability, IC50 range across the panel; conditions: Homo sapiens, Neuroblastoma cell; range over cell lines, doses 0–100 µmol/L, viability every 24 for 72 hours; read-out: IC50 against neuroblastoma cells across the panel of cell lines
Experimental: as §1, with “([…]” for “(SkanIT”, “software. To determine their efficacy in neuroblastoma, a panel of neuroblastoma cell lines including neuroblastoma patient-derived cell lines and noncancerous normal tissue-derived cell lines were treated with increasing doses of each antagonist (0-100 μmol/L), followed by real-time measurement of cell viability every 24 for 72 hours. […] Supplementary Table S2; Fig. 2A). […] Fig. 2A).” for “software.”

KELLY [9] = experiment: Drug interactions assay (Chou-Talalay CI, DRI); conditions: 48 hours
Experimental: (§4) Drug interactions between XIAP-specific antagonist A4 and vincristine or topotecan were determined using the combination index (CI) by Chou and Talalay which was established on the basis of the mass-action law principle to derive the median-effect equation ([25]). […] Cell viability was measured and CI and dose reduction index (DRI) values were quantified using the CompuSyn software by Chou–Talalay. Areas under the dose–response curves were calculated using the trapezoidal method and compared using paired t test.
(§5) For treatment of high-risk neuroblastoma, current standard-of-care utilizes intensive multimodal therapy involving combinations of multiple cytotoxic agents. […] To analyze potential drug interactions, treatment of BE(2)-C and KELLY cells with A4 in combination with either vincristine or topotecan was examined. Using Chou–Talalay method, the drug interaction effect/type determined by the drug combination (CI) index is as follows: CI <1 (synergistic effect); CI = 1 (additive effect); CI >1 (antagonistic effect).
(§6) CI was generated using CompuSyn software by Chou–Talalay ([25]). CI60–90 represents the average CI at 60%–90% cell death. CI <1 denotes synergistic effect; CI = 1 denotes addictive effect and CI >1 denotes antagonistic effect. […] DRI was generated using CompuSyn software by Chou–Talalay. DRI60–90 represents the average DRI at 60%–90% cell death. DRI <1 denotes unfavorable dose reduction and DRI >1 denotes favorable dose reduction.

BE(2)-C [10] = experiment: Drug interactions assay (Chou-Talalay CI, DRI); conditions: 48 hours
Experimental: as §4, §5, §6

SK-N-AS [11] = experiment: Drug interactions assay (Chou-Talalay); conditions: in combination with A4
Experimental: as §4
DRI <1 denotes unfavorable dose reduction and DRI >1 denotes favorable dose reduction.

IC50 (SK-N-SH; 24 hours): 55.4 µM
IC50 (SK-N-SH; 48 hours): 44 µM
IC50 (SK-N-SH; 72 hours): 33 µM
IC50 ([1]; NBL01-1116, 24 hours): 42 µM
IC50 ([1]; NBL01-1116, 48 hours): 36.4 µM
IC50 ([1]; NBL01-1116, 72 hours): 36 µM
IC50 ([3]; NBL-07-0317, 24 hours): 33.6 µM
IC50 ([3]; NBL-07-0317, 48 hours): 31.8 µM
IC50 ([3]; NBL-07-0317, 72 hours): 30 µM
IC50 (SK-N-AS [5]; 24 hours): 34 µM
IC50 (SK-N-AS [5]; 48 hours): 22.5 µM
IC50 (SK-N-AS [5]; 72 hours): 15.7 µM
IC50 ([6]; NBL16-0118, 24 hours): 34 µM
IC50 ([6]; NBL16-0118, 48 hours): 27.5 µM
IC50 ([6]; NBL16-0118, 72 hours): 22.5 µM
IC50 ([7]; 24 hours): 39 µM
IC50 ([7]; 48 hours): 32.5 µM
IC50 ([7]; 72 hours): 28.5 µM
IC50 [8]: 20 to 60 µM
SMILES: CN[C@@H](C)C(=O)N[C@H](C(=O)N1CCC[C@H]1c1nc(C(=O)c2ccc(F)cc2)cs1)C1CCCCC1 [LCL161]
toxicity to noncancerous cells (THLE3 and HS5): more toxic toward noncancerous cells than neuroblastoma cells
IC50 (THLE3 (liver origin); THLE3, 24 hours): > 60 µM
IC50 (THLE3 (liver origin); THLE3, 48 hours): 24 µM
IC50 (THLE3 (liver origin); THLE3, 72 hours): 14.5 µM
IC50 (HS5 (bone marrow origin); HS5, 24 hours): 30 µM
IC50 (HS5 (bone marrow origin); HS5, 48 hours): 18 µM
IC50 (HS5 (bone marrow origin); HS5, 72 hours): 15.5 µM
IC50 (NLF; 24 hours): 32.8 µM
IC50 (NLF; 48 hours): 30.2 µM
IC50 (NLF; 72 hours): 28.5 µM
IC50 (KELLY [2]; 24 hours): 48.2 µM
IC50 (KELLY [2]; 48 hours): 27.6 µM
IC50 (KELLY [2]; 72 hours): 21.2 µM
IC50 (IMR-32; IMR-32, 24 hours): > 60 µM
IC50 (IMR-32; IMR-32, 48 hours): 30 µM
IC50 (IMR-32; IMR-32, 72 hours): 19 µM
IC50 (BE(2)-C [4]; 24 hours): > 60 µM
IC50 (BE(2)-C [4]; 48 hours): 42.5 µM
IC50 (BE(2)-C [4]; 72 hours): 32.5 µM
IC50 (NB1; NB1, 24 hours): > 60 µM
IC50 (NB1; NB1, 48 hours): 46.5 µM
IC50 (NB1; NB1, 72 hours): 27.4 µM
IC50 (CHP212; CHP212, 24 hours): 42 µM
IC50 (CHP212; CHP212, 48 hours): 33 µM
IC50 (CHP212; CHP212, 72 hours): 31.2 µM

SMILES: CC[C@@]1(O)C(=O)OCc2c1cc1n(c2=O)Cc2cc3c(CN(C)C)c(O)ccc3nc2-1 [Topotecan, Topotecan hydrochloride]
AUC of dose–response curve (KELLY [9]; topotecan dose axis): 352.1±28.9 nM* luminescence
AUC of dose–response curve (BE(2)-C [10]; topotecan dose axis): 164.6±8.6 nM* luminescence

SMILES: CC[C@]1(O)C[C@H]2CN(CCc3c([nH]c4ccccc34)[C@@](C(=O)OC)(c3cc4c(cc3OC)N(C=O)[C@H]3[C@@](O)(C(=O)OC)[C@H](OC(C)=O)[C@]5(CC)C=CCN6CC[C@]43[C@@H]65)C2)C1 [Vincristine, Vincristine sulfate]
drug interaction with A4 (SK-N-AS [11]): only additive effect
AUC of dose–response curve (KELLY [9]; vincristine dose axis): 37.5±3.9 pM* luminescence
AUC of dose–response curve (BE(2)-C [10]; vincristine dose axis): 9.8±0.2 pM* luminescence
